Data as given in ChEMBL document CHEMBL3286089, “Multiparameter optimization in CNS drug discovery: design of pyrimido[4,5-d]azepines as potent 5-hydroxytryptamine 2C (5-HT₂C) receptor agonists with exquisite functional selectivity over 5-HT₂A and 5-HT₂B receptors” (J Med Chem, 2014).

Key:
[1] = Octanol-water partition coefficient, log D of the compound at pH 7.4; assay type: physicochemical
[2] = Dissociation constant, pKa of the compound; assay type: physicochemical
[3] = Intrinsic clearance in human liver microsomes; assay type: ADME; details: read-out: CLH
[4] = Intrinsic clearance in rat liver microsomes; assay type: ADME; details: read-out: CLH
[5] = Intrinsic clearance in dog liver microsomes; assay type: ADME, Canis lupus familiaris
[6] = Intrinsic clearance in human hepatocytes assessed as 10^6 cells; assay type: ADME, cell-based, Hepatocyte; details: read-out: CLH

logD [1] | pKa [2] | microsomal CLint [3] [µL/min/mg] | microsomal CLint [4] [µL/min/mg] | microsomal CLint [5] [µL/min/mg] | hepatocyte CLint [6] [µL/min/1e6 cells] | Compound
0.7 |  |  |  |  |  | CNc1nc(Cc2ccccc2)nc2c1CCNC[C@H]2C
0.1 |  |  |  |  |  | Nc1nc(Cc2ccccc2)nc2c1CCNCC2
0.7 | 8.6 | 16 | 329 | 114 | 3.4 | CNc1nc(Cc2ccccc2)nc2c1CCNC[C@@H]2C
